Experiments:
[1] = Geometric mean for apparent terminal elimination rate constant of diclofenac following single oral dosing of 50 mg Cataflam tablet in healthy human; format: ADME, organism-based, Plasma; set-up: dietary status Fed, dose 50 mg, dosed compound id 2.46815e+06, dosed compound name Diclofenac potassium, gender Mixed, regimen Single, route oral; conditions: in vivo
[2] = Mean Cmax of diclofenac following single oral dosing of 50 mg diclofenac potassium softgel capsule in healthy human; format: ADME, organism-based; set-up: dietary status Fed, dose 50 mg, dosed compound id 2.46815e+06, dosed compound name Diclofenac potassium, gender Mixed, regimen Single, route oral, study doses 25/50 mg; conditions: both, plasma
[3] = Mean Tmax of diclofenac following single oral dosing of 50 mg Cataflam in healthy human; format: ADME, organism-based; set-up: dietary status Fasting, dose 50 mg, dosed compound id 2.46815e+06, dosed compound name Diclofenac potassium, gender Mixed, regimen Single, route oral, study doses 50 mg; conditions: both, plasma
clinical [4] = conditions: both, human, plasma, po, 35 mg
[5] = Mean Cmax of diclofenac following single oral dosing of 50 mg diclofenac potassium soft gelatin capsule in healthy human; format: ADME, organism-based; set-up: dietary status Fasting, dose 50 mg, dosed compound id 2.46815e+06, dosed compound name Diclofenac potassium, gender Mixed, regimen Single, route oral, study doses 25/50 mg; conditions: both, plasma
[6] = Mean AUC (0-infinity) value of diclofenac following single oral dosing of 50 mg Cataflam tablet in healthy human; format: ADME, organism-based; set-up: time infinity, dietary status Fasting, dose 50 mg, dosed compound id 2.46815e+06, dosed compound name Diclofenac potassium, gender Mixed, regimen Single, route oral; conditions: both, plasma, read-out: AUC (0-infinity)
[7] = (§1) Mean AUC (0-infinity) of diclofenac following single oral dosing of 25 mg diclofenac potassium softgel capsule in healthy human; format: ADME, organism-based; set-up: time infinity, dietary status Fed, dose 25 mg, dosed compound id 2.46815e+06, dosed compound name Diclofenac potassium, gender Mixed, regimen Single, route oral, study doses 25/50 mg; conditions: both, plasma, read-out: AUC (0-infinity)
[8] = Mean Kel of diclofenac potassium following oral dosing of PRO-513 50 mg sachet in healthy human; format: ADME, organism-based; set-up: dietary status Fasting, dose 50 mg, dosed compound id 2.46815e+06, dosed compound name Diclofenac potassium, gender Mixed, regimen Single, route oral, study doses 50 mg; conditions: both, plasma
clinical [9] = conditions: both, human, plasma, po, 50 mg
Description: Mean terminal elimination half-life of diclofenac following single oral dosing of 50 mg diclofenac potassium softgel capsule in healthy human

[10] = Mean AUC (0-t) value of diclofenac following single oral dosing of 35 mg Zorvolex capsule in healthy human; format: ADME, organism-based; set-up: dietary status Fed, dose 35 mg, dosed compound id 2.46815e+06, dosed compound name Diclofenac, gender Mixed, regimen Single, route oral; conditions: both, plasma
[11] = Geometric mean for Cmax of diclofenac following single oral dosing of 18 mg Zorvolex capsule in healthy human; format: ADME, organism-based; set-up: dietary status Fasting, dose 18 mg, dosed compound id 2.46815e+06, dosed compound name Diclofenac, gender Mixed, regimen Single, route oral; conditions: both, plasma
[12] = (§2) Geometric mean for apparent terminal elimination rate constant of diclofenac following single oral dosing of 35 mg Zorvolex capsule in healthy human; format: ADME, organism-based, Plasma; set-up: dietary status Fed, dose 35 mg, dosed compound id 2.46815e+06, dosed compound name Diclofenac, gender Mixed, regimen Single, route oral; conditions: in vivo
[13] = as §2; format: ADME, organism-based, Plasma; set-up: dietary status Fasting, dose 35 mg, dosed compound id 2.46815e+06, dosed compound name Diclofenac, gender Mixed, regimen Single, route oral; conditions: in vivo
[14] = Mean Kel of diclofenac potassium following oral dosing of Cataflam 50 mf tablet in healthy human; format: ADME, organism-based; set-up: dietary status Fasting, dose 50 mg, dosed compound id 2.46815e+06, dosed compound name Diclofenac potassium, gender Mixed, regimen Single, route oral, study doses 50 mg; conditions: both, plasma, 50 mg
clinical [15] = conditions: both, human, plasma, po, 25 mg
[16] = Mean AUC(0-infinity) of diclofenac potassium following oral dosing of Cataflam 50 mf tablet in healthy human; format: ADME, organism-based; set-up: time infinity, dietary status Fasting, dose 50 mg, dosed compound id 2.46815e+06, dosed compound name Diclofenac potassium, gender Mixed, regimen Single, route oral, study doses 50 mg; conditions: both, plasma, 50 mg, read-out: AUC(0-infinity)
[17] = as §1; format: ADME, organism-based; set-up: time infinity, dietary status Fasting, dose 25 mg, dosed compound id 2.46815e+06, dosed compound name Diclofenac potassium, gender Mixed, regimen Single, route oral, study doses 25/50 mg; conditions: both, plasma, read-out: AUC (0-infinity)
[18] = Mean maximum Tmax value of diclofenac potassium following oral dosing of PRO-513 50 mg sachet in healthy human; format: ADME, organism-based; set-up: dietary status Fasting, dose 50 mg, dosed compound id 2.46815e+06, dosed compound name Diclofenac potassium, gender Mixed, regimen Single, route oral, study doses 50 mg; conditions: both, plasma, read-out: Maximum Tmax
[19] = Mean Cmax of diclofenac potassium following oral dosing of PRO-513 50 mg sachet in healthy human; format: ADME, organism-based; set-up: dietary status Fed, dose 50 mg, dosed compound id 2.46815e+06, dosed compound name Diclofenac potassium, gender Mixed, regimen Single, route oral, study doses 50 mg; conditions: both, plasma
[20] = (§3) Geometric mean for AUC (0-infinity) of diclofenac following single oral dosing of 50 mg Cataflam tablet in healthy human; format: ADME, organism-based, Plasma; set-up: time infinity, dietary status Fasting, dose 50 mg, dosed compound id 2.46815e+06, dosed compound name Diclofenac potassium, gender Mixed, regimen Single, route oral; conditions: in vivo
clinical [21] = conditions: both, human, plasma, po, 25 mg; remark: listed apart in the source
Description: Mean terminal elimination half-life of diclofenac following single oral dosing of 25 mg diclofenac potassium softgel capsule in healthy human

[22] = Mean AUC (0-infinity) of diclofenac following single oral dosing of 50 mg diclofenac potassium softgel capsule in healthy human; format: ADME, organism-based; set-up: time infinity, dietary status Fed, dose 50 mg, dosed compound id 2.46815e+06, dosed compound name Diclofenac potassium, gender Mixed, regimen Single, route oral, study doses 25/50 mg; conditions: both, plasma, read-out: AUC (0-infinity)
[23] = as §3; format: ADME, organism-based; set-up: dietary status Fed, dose 50 mg, dosed compound id 2.46815e+06, dosed compound name Diclofenac potassium, gender Mixed, regimen Single, route oral, time infinity; conditions: both, plasma, read-out: AUC (0-infinity)
[24] = Minimum tmax of diclofenac following single oral dosing of 18 mg Zorvolex capsule in healthy human; format: ADME, organism-based, Plasma; set-up: dietary status Fasting, dose 18 mg, dosed compound id 2.46815e+06, dosed compound name Diclofenac, gender Mixed, regimen Single, route oral; conditions: in vivo
[25] = Mean Tmax of diclofenac following single oral dosing of 50 mg diclofenac potassium softgel capsule in healthy human; format: ADME, organism-based; set-up: dietary status Fasting, dose 50 mg, dosed compound id 2.46815e+06, dosed compound name Diclofenac potassium, gender Mixed, regimen Single, route oral, study doses 25/50 mg; conditions: both, plasma
clinical [26] = conditions: both, human, plasma, po, 50 mg; remark: listed apart in the source
[27] = Geometric mean for AUC (0-t) of diclofenac following single oral dosing of 35 mg Zorvolex capsule in healthy human; format: ADME, organism-based; set-up: dietary status Fed, dose 35 mg, dosed compound id 2.46815e+06, dosed compound name Diclofenac, gender Mixed, regimen Single, route oral; conditions: both, plasma
[28] = Median tmax of diclofenac following single oral dosing of 50 mg Cataflam tablet in healthy human; format: ADME, organism-based; set-up: dietary status Fed, dose 50 mg, dosed compound id 2.46815e+06, dosed compound name Diclofenac potassium, gender Mixed, regimen Single, route oral; conditions: both, plasma, read-out: Median Tmax
[29] = Mean AUC (0-t) value of diclofenac following single oral dosing of 18 mg Zorvolex capsule in healthy human; format: ADME, organism-based; set-up: dietary status Fasting, dose 18 mg, dosed compound id 2.46815e+06, dosed compound name Diclofenac, gender Mixed, regimen Single, route oral; conditions: both, plasma
[30] = Mean AUC(0-t) of diclofenac potassium following oral dosing of PRO-513 50 mg sachet in healthy human; format: ADME, organism-based; set-up: dietary status Fasting, dose 50 mg, dosed compound id 2.46815e+06, dosed compound name Diclofenac potassium, gender Mixed, regimen Single, route oral, study doses 50 mg; conditions: both, plasma
[31] = Mean Tmax of diclofenac following single oral dosing of 25 mg diclofenac potassium softgel capsule in healthy human; format: ADME, organism-based; set-up: dietary status Fasting, dose 25 mg, dosed compound id 2.46815e+06, dosed compound name Diclofenac potassium, gender Mixed, regimen Single, route oral, study doses 25/50 mg; conditions: both, plasma
[32] = Mean AUC (0-t) of diclofenac following single oral dosing of 50 mg diclofenac potassium softgel capsule in healthy human; format: ADME, organism-based; set-up: dietary status Fed, dose 50 mg, dosed compound id 2.46815e+06, dosed compound name Diclofenac potassium, gender Mixed, regimen Single, route oral, study doses 25/50 mg; conditions: both, plasma

Compound `O=C(O)Cc1ccccc1Nc1c(Cl)cccc1Cl` [DICLOFENAC] has a lambda-z [1] of 0.318 h⁻¹, a Cmax [2] of 1150 ng/mL and a Tmax [3] of 0.93 h. It also gave a half-life (clinical [4]) of 2.1 h, a Cmax [5] of 2040 ng/mL and an AUC(0-inf) [6] of 1330 ng·h/mL. For the same compound, the AUC(0-inf) [7] was 713 ng·h/mL, the k el [8] was 0.000156 s⁻¹ and the half-life (clinical [9]) was 1.1 h. It also gave an AUC(0-t) [10] of 861 ng·h/mL, a Cmax [11] of 454 ng/mL and a lambda-z [12] of 0.333 h⁻¹. The lambda-z [13] was 0.34 h⁻¹, the k el [14] was 0.000164 s⁻¹ and the half-life (clinical [15]) was 1.35 h. It also gave an AUC(0-inf) [16] of 1100 ng·h/mL, an AUC(0-inf) [17] of 706 ng·h/mL and a Tmax [18] of 0.67 h. The Cmax [19] was 506 ng/mL, the “AUC (0-infinity)” value [20] was 1301.961 ng·h/mL and the half-life (clinical [21]) was 1.11 h. For the same compound, the AUC(0-inf) [22] was 1460 ng·h/mL, the AUC(0-inf) [23] was 1180 ng·h/mL and the “Minimum Tmax” value [24] was 0.5 h. The Tmax [25] was 0.51 h, the half-life (clinical [26]) was 2.15 h and the AUC(0-t) [27] was 837 ng·h/mL. It also gave a Tmax [28] of 2.33 h, an AUC(0-t) [29] of 490 ng·h/mL and an AUC(0-t) [30] of 1240 ng·h/mL. For the same compound, the Tmax [31] was 0.49 h and the AUC(0-t) [32] was 1420 ng·h/mL.

Reference: ChEMBL document CHEMBL3509421, “FDA drug approval package for diclofenac acid (NDA 22-202 CP, Ref ID: 3374276)”
